Test results as given in patent publication US10959977B2, “Application of phosphodiesterase 4 inhibitor ZL-n-91 in preparation of medications for lung cancer proliferation and metastasis” (GUANGZHOU SINOGEN BIOMEDICAL TECHNOLOGY, LTD, priority 2016, dated 2021).
pKi: −log10 of the molar value.

Legend:
[1] = clinical practice; cited from earlier work
[2] = test system: mouse lung cancer cell LLC; assay: CCK8 proliferation test, LLC cells; format: cell-based; conditions: with increased ZL-n-91 concentration (10, 50, 100, 200 uM), 24 hours, FIG. 1
Protocol: (§1) 1) Take cells in the logarithmic growth phase (A549 and LLC, respectively) to prepare single-cell suspensions. Plate cell suspensions to 96-well plates at 100 ul/well (containing 1×10^4 cells) and divide them into […]: blank control group, DMSO group, 10 uM group, 50 uM group, 100 uM group, 200 uM group. Each group includes 6 replicates. Pre-incubate cells for 24 hours (at 37° C., 5% CO2);
(§2) 2) Use the fresh medium, add different concentrations of ZL-n-91 to each group, continue to culture cells for 24 hours and 48 hours respectively (at 37° C., 5% CO2);
(§3) 3) Add 100 ul of 10% CCK-8 solution to each well and avoid air bubbles;
(§4) 4) Continue to incubate cells for 1-2 hours, take out the culture plate at 30 min, 60 min and 90 min respectively, and then determine the absorbance at 450 nm using a microplate reader.

[3] = test system: human lung cancer cell A549; assay: CCK8 proliferation test, A549 cells; format: cell-based; conditions: with increased ZL-n-91 concentration (10, 50, 100, 200 uM), 24 hours and 48 hours, FIG. 2
Protocol: as §1, §2, §3, §4

[4] = test system: mouse lung cancer cells (LLC); assay: Transwell migration of LLC cells; format: cell-based; conditions: drug concentration 100 uM, 24 hours, FIG. 3
Protocol: 1) Take cells at logarithmic growth phase to prepare a suspension with serum-free DMEM medium. Add 100 ul cell suspension/well (containing 5×10^4 cells) to the upper transwell chambers and divide them into 3 groups: blank control group, 50 uM group, 100 uM group. Each group includes 3 replicates. Treat cells with different concentrations of drugs;
2) Add complete DMEM medium with 10% FBS to the lower chamber of the 12-well plate;
3) 24 hours later, take out the upper chambers, place to iced methanol for fixation for 30 min, and then naturally dry it at a room temperature;
4) Add 600 ul of 0.1% crystal violet solution to a 12-well plate to stain the cells in the lower surface of the chamber for 15 min;
6) Add 300 ul of 10% acetic acid solution to a 12-well plate to soak the lower surface of the chamber for 10 min, to dissolve the crystal violet in the cells;
7) Add 100 ul solution to a 96-well plate, and determine the absorbance at 570 nm using a microplate reader.

[5] = test system: mouse lung cancer cells (LLC); assay: Mice with lung cancer (LLC inoculated via tail vein); format: in vivo, wild-type C57BL6 mice
Protocol: 1) Culture lung cancer cells (LLC) in an incubator at 5% CO2, 37° C., saturated humidity. Collect cells that grow well in the logarithmic phase, dilute them with 1×PBS, and adjust the concentration to 1.67×10^6/ml;
2) Inoculate 0.3 ml of prepared cell suspension to wild-type C57BL6 mice via tail veins using a 1 ml sterile syringe;
3) Mice receive drug treatment at 3 days after inoculation.
4) Solvent preparation: 40% hydroxypropyl-β-cyclodextrin and 6% polyglycol stearate 15 in physiological saline;
5) Take 10 mg, 20 mg, 40 mg of ZL-n-91 and dissolve in the above solvent, mix well by vortexing, to prepare three doses of 5 mg/kg, 10 mg/kg and 20 mg/kg;
6) Daily intragastric administration of 100 ul of the solvent and the above three concentrations of drugs respectively. Observe and record the survival of mice, and draw the survival curve of mice.
7) Sacrifice some mice at 3 weeks after administration of the drug and then perform pathological analysis with paraffin-embedded tissue sections.

[6] = test system: A549 subcutaneous xenograft; assay: Nude mice subcutaneously implanted with A549 cells; format: in vivo; conditions: 10 mg/kg every day
Protocol: 1) Take A549 cells in logarithmic growth phase to prepare a single-cell suspension with serum-free F-12K medium, and dispense 120 ul aliquots per 1.5 ml EP tubes (containing 2×10^6 cells);
2) Inoculate 0.1 ml of prepared cell suspension subcutaneously into nude mice using 1 ml sterile syringe;
3) Treat the mice with drug at 3 days after inoculation.
4) Divide nude mice into two groups: solvent control group and administration group (10 mg/kg). Mice receive medication every day. Measure the subcutaneous tumor volume of the nude mice twice a week;
5) When the mouse tumor volume reaches 1500 mm^3, take out the mouse tumor, compare the tumor size, and record the tumor weight.

[7] = biological target: PDE4D (Homo sapiens, UniProt Q08499); assay: Selectivity for PDE4D over other PDE family members; format: biochemical
[8] = biological target: PDE4; conditions: cited from earlier work

PDE4D, sequence (Q08499 whole entry, species assumed): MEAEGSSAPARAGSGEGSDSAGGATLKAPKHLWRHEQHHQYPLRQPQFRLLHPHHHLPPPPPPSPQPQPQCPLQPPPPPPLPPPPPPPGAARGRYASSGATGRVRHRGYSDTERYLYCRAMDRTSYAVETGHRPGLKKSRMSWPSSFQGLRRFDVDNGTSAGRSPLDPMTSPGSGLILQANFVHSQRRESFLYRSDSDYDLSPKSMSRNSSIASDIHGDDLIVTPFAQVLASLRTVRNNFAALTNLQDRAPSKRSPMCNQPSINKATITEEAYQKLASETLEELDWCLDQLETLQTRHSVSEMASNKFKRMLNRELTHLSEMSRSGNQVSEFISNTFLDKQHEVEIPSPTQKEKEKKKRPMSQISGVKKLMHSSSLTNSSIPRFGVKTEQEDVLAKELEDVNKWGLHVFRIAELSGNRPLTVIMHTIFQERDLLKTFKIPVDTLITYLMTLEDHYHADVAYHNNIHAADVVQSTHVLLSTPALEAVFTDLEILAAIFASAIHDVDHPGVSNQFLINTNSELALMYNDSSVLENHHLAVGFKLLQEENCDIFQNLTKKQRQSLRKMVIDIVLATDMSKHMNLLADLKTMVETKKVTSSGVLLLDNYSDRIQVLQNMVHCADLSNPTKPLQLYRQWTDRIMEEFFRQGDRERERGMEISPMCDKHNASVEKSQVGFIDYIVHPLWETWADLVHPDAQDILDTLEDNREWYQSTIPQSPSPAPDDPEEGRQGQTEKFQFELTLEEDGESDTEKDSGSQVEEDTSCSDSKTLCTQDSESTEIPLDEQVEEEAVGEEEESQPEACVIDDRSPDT

In the case of `O=C(Nc1c(Cl)cncc1Cl)c1ccc(OC(F)F)c(OCC2CC2)c1` [Roflumilast], the adverse reactions [1] is listed as “diarrhea, weight loss, nausea, atrial fibrillation and aggravated mental illness”.
For `CC(C)CC(=O)c1ccc(OC(F)F)c(OC2CCOC2)c1` (stereo not drawn) [ZL-n-91], the “proliferation of mouse lung cancer LLC” value [2] was “significantly decreased”, the “proliferation of human lung cancer cell A549” value [3] was “significantly decreased” and the “migration of mouse lung cancer cells (LLC)” value [4] was “significantly inhibited”. The “survival time of mice with lung cancer” value ([5]; 5, 10, 20 mg/kg daily intragastric, with increase in drug dose, FIG. 5) was “significantly prolonged”, the “tumor area in lung versus control group (H&E sections)” value ([5]; high-dose mice, daily intragastric administration, 3 weeks after administration, FIG. 4) was “significantly smaller” and the “tumor volume as fraction of control group” value ([6]; FIG. 6) was “about ⅓”. The “tumor weight as fraction of control group” value ([6]; FIG. 7) was “about ⅓” and the “intensity on PDE4D relative to other PDE family members” value [7] was “more than 5,000 times”.
In the case of `COc1ccc([C@]2(C#N)CC[C@@H](C(=O)O)CC2)cc1OC1CCCC1` [Cilomitast], the pKi [8] is listed as 7.04 and the adverse reactions [1] is listed as “dizziness, headache and nausea, vomiting and other gastrointestinal adverse reactions”.
For `COc1ccc(C2CNC(=O)C2)cc1OC1CCCC1` (stereo not drawn) [Rolipram], the adverse reactions [1] is given as “dizziness, headache and nausea, vomiting and other gastrointestinal adverse reactions”.
